Read-outs that look alike come from different tables or passages of the source.
Legend:
[1] = tested on: normotensive anesthetized rat; test: Mean arterial blood pressure and heart rate in normotensive anesthetized rat; assay type: in vivo; settings: for Anesthetized Rat HR/ED25: intravenous dose lowering heart rate by 25%; for Anesthetized Rat MAP/ED25: intravenous dose lowering mean arterial pressure by 25%
Method: Normotensive rats are anesthetized with sodium pentobarbital (50 mg/kg, i.p.) and placed on a heated surgical table. Cannulas are inserted into the femoral artery and veined to allow the measurement of arterial pressure and to facilitate the intravenous administration of test compounds. The animals are allowed to equilibrate for 10 minutes after surgery. Mean arterial pressure is continuously measured and recorded and heart rate is monitored using the arterial pressure pulse to trigger a cardiotachometer. After baseline parameters are established and recorded, increasing doses (1, 3, 10, 30, 100, 300 and 1000 μg/kg) of the compound of Formula I to be tested are administered intravenously. Maximal changes in the cardiovascular parameters are observed after each dose of the adenosine agonist. Only one compound is administered per rat.

[2] = target: T1, A1 receptor (Rattus norvegicus, UniProt P25099); test: A1 adenosine receptor binding, displacement of 3H-CHA, whole rat brain membranes; settings: 3H-CHA displacement, 25° C., 60 minutes
T1 construct: using a membrane preparation of whole rat brain; from tissue; host or cells: whole rat brain membranes
T1 sequence (P25099 1-326): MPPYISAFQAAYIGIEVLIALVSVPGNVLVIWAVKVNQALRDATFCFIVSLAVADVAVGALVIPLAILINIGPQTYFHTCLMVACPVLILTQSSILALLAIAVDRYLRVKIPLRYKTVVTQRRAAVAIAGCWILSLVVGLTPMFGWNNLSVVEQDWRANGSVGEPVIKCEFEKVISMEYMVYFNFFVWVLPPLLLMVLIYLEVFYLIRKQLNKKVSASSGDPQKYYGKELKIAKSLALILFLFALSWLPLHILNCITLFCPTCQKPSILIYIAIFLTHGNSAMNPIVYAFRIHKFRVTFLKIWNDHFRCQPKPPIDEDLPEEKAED
Method: Non-specific binding is assessed in the presence of 1 mM theophylline.
(§1) The assays are run in glass test tubes in duplicate at 25° C. Once the membranes are added, the tubes are vortexed and incubated at 25° C. for 60 minutes (A1 assay) or 90 minutes (A2 assay) on a rotary shaker. The assay tubes are vortexed halfway through the incubation and again near the end. The assays are terminated by rapid filtration through 2.4 cm GF/B filters using a Brandel Cell Harvestor. The test tubes are washed three times with cold 50 mM tris-HCl (pH 7.7 or 7.4), with filtration being completed within 15 seconds. The damp filter circles are placed in glass scintillation vials filled with 10 ml of Aquasol II (New England Nuclear). The vials are allowed to shake overnight on a rotary shaker and are placed into a liquid scintillation analyzer for two minute counts. IC50 values for receptor binding, i.e. the concentration at which a compound of Formula I displaced the radiolabeled standard, are obtained using a curve-fitting computer program (RS/1, Bolt, Beranek and Newman, Boston, Mass.).

[3] = tested on: swine coronary arteries; test: In vitro vasorelaxation in isolated swine coronary arteries; assay type: cell-based
Method: Swine coronary arteries are obtained from a local slaughter house, dissected carefully and cleaned of fat, blood and adhering tissue. Rings approximately 2-3 mm wide are cut and transferred to water-jacketed tissue baths (10 mL) filled with warm (37° C.), oxygenated (O2/CO2:95%/5%) Krebs-Henseleit buffer and mounted on L-shaped hooks between stainless steel rods and a force transducer. […] PGF2a, before being exposed to 3 μM PGF2a.

[4] = target: T2, A2 receptor (Rattus norvegicus, UniProt P30543); test: A2 adenosine receptor binding, displacement of 3H-CGS 21680, rat brain striatum membranes; settings: 3H-CGS 21680 displacement, rat brain striatum membranes, 25° C., 90 minutes; read-out: Adenosine Receptor Binding Activity/IC50 (nM) A2
T2 construct: using membranes from rat brain striatum; from tissue; host or cells: rat brain striatum membranes
T2 sequence (P30543 whole entry): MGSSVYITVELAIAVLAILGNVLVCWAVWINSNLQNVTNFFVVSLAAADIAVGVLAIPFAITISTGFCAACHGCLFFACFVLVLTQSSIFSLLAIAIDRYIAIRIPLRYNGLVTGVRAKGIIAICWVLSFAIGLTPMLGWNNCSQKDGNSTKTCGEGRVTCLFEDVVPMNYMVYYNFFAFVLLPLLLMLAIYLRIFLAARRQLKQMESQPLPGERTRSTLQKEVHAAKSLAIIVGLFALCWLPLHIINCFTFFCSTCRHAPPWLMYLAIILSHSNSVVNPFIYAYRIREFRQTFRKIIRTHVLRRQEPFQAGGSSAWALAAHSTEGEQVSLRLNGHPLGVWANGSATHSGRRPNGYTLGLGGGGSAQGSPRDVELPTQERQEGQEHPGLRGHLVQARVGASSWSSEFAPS
Method: Non-specific binding is assessed in the presence of 20 μm 2-chloroadenosine.
as §1

[5] = 50% reduction in tension of rings contracted with 3 μM PGF2a, read-out: Vasorelaxation in Swine Coronary Artery/IC50
[6] = Sus scrofa, read-out: Vasorelaxation in Swine Coronary Artery/IC50 (μM)

SMILES | Anesthetized Rat HR/ED25 [1] [µg/kg] | Anesthetized Rat MAP/ED25 [1] [µg/kg] | IC50 [2] [nM] | IC50 [3, 5] [µM] | IC50 [4] [nM] | IC50 [3, 6] [µM]
OC[C@H]1O[C@@H](n2cnc3c(NCCNc4nc5ccccc5s4)ncnc32)[C@H](O)[C@@H]1O [Example 9, N^6-[2-(2′-aminobenzothia-zolyl)ethyl]adenosine] | 4 | 5 | 4 | 11.9 | 1000 | –
Cc1csc(CNc2ncnc3c2ncn3[C@@H]2O[C@H](CO)[C@@H](O)[C@H]2O)n1 [Example 18, N^6-[2-(4′-methyl-2′-thiazolyl)-methyl]adenosine] | >10 | 2 | 166 | 0.46 | 52 | –
CCNC(=O)[C@H]1O[C@@H](n2cnc3c(NCCNc4nc5ccccc5s4)ncnc32)[C@H](O)[C@@H]1O [Example 23] | 7 | 6 | 0.32 | 4.4 | 891 | –
CCNC(=O)[C@H]1C[C@@H](n2cnc3c(NCCc4scnc4C)ncnc32)[C@H](O)[C@@H]1O (relative stereo) [Example 24, (±)-N^6-[2-(4″-methyl-5″-thiazolyl)ethyl]carbocydic adenosine-5′-N-ethyl carboxamide] | >10 | 6 | > 1000 | – | > 1000 | –
CCNC(=O)[C@H]1C[C@@H](n2cnc3c(NCCc4cccs4)ccnc32)[C@H](O)[C@@H]1O (racemic) [Example 30, (±)-N6-[1-(thiopheny-2-yl)ethan-2-yl]-N′-1-deazaaristeromycin-5′-N-ethyl carboxamide] | >10 | 6 | 562 | – | > 1000 | 12.1
Cc1ncsc1CCNc1ncnc2c1ncn2[C@@H]1O[C@H](CO)[C@@H](O)[C@H]1O [Example 12, N^6-[2-(4′-methylthiazol-5′-yl)-ethyl]adenosine] | 17 | 4 | 23 | 0.5 | 224 | –
OC[C@H]1O[C@@H](n2cnc3c(NCCc4nccs4)ncnc32)[C@H](O)[C@@H]1O [Example 13, N^6-[2-(2′-thiazolyl)ethyl]-adenosine] | >10 | 3 | 41 | 0.24 | 191 | –
OC[C@H]1O[C@@H](n2cnc3c(N[C@@H]4CCCC[C@H]4c4cccs4)ncnc32)[C@H](O)[C@@H]1O (relative stereo) [Example 7, N^6-[trans-2-(thiophen-2-yl)-cyclohex-1-yl]adenosine] | 18 | 6 | 3.5 | – | 28 | 4
OC[C@H]1O[C@@H](n2cnc3c(N[C@@H]4CC=CC[C@H]4c4ccsc4)ncnc32)[C@H](O)[C@@H]1O (relative stereo) [Example 8, N^6-[trans-2-(thiophen-3-yl)-cyclohex-4-en-1-yl]adenosine] | 23 | 10 | 5 | – | 138 | –
C[C@H](Cc1cc2ccccc2s1)Nc1ncnc2c1ncn2[C@@H]1O[C@H](CO)[C@@H](O)[C@H]1O [Example 15, N^6-[(R)-1-methyl-2-(2′benzo-[b]-thiophenyl)ethyl]adenosine] | 1.4 | 1.5 | 4.07 | – | – | 2.45
